Reference: patent US10138275B2, “Crystalline powder of cyclic peptide compound, preparation method for same, and uses thereof” (SHANGHAI TECHWELL BIOPHARMACEUTICAL CO., LTD, priority 2014, dated 2018)
Starred links: 1 amine or outer side, 2 acyl side, 3 side chain; linkers in the order of their positions; H or OH if unused. Positions of bridges follow the written chain, without caps; N, C: chain ends. Non-standard residues stand in square brackets, D forms with d. Residues, ends and D or L forms follow the SMILES beside them. *: point of attachment. hTyr(3S-OH,4S-OH,3'-OSO3H) = N[C@H](C(=O)O)[C@H](O)[C@@H](O)c1ccc(O)c(OS(=O)(=O)O)c1; Orn(4R-OH,5R-OH) = O=C([C@H](C[C@@H](O)[C@@H](O)N[*:3])N[*:1])[*:2]; Pro(3S-OH,4S-Me) = C[C@H]1CN[C@H](C(=O)O)[C@H]1O; X1 = CCCCCOc1ccc(-c2cc(-c3ccc(C(=O)*)cc3)no2)cc1; Gln(3R-OH) = NC(=O)C[C@@H](O)[C@H](N)C(=O)O; Hyp = O=C(O)[C@@H]1C[C@@H](O)CN1

Test: Ratio of dry weight to wet weight (Dry/Wet) of filtered solids
Assay type: physicochemical
Conditions: wet solids weighed after filtration, before drying
Text: As used herein, the term “Dry/Wet” and “ratio of dry weight to wet weight” can be used interchangeably, both of which refer to the ratio of the weight of a compound without solvent(s) to the weight of the compound with solvent(s). In the present invention, wet weight of crystals is obtained by filtering the crystallized solids until no noticeable droplet outflows and weighing the solids.

Row | SMILES | ratio of dry weight to wet weight (Dry/Wet)
1 | CCCCCOc1ccc(-c2cc(-c3ccc(C(=O)N[C@H]4C[C@@H](O)[C@@H](O)NC(=O)[C@@H]5[C@@H](O)[C@@H](C)CN5C(=O)[C@H]([C@H](O)CC(N)=O)NC(=O)[C@H]([C@H](O)[C@@H](O)c5ccc(O)c(OS(=O)(=O)[O-])c5)NC(=O)[C@@H]5C[C@@H](O)CN5C(=O)[C@H]([C@@H](C)O)NC4=O)cc3)no2)cc1.[Na+] [Comparative Example 6] (X1-[Orn(4R-OH,5R-OH)]T[Hyp][hTyr(3S-OH,4S-OH,3'-OSO3H)][Gln(3R-OH)][Pro(3S-OH,4S-Me)]; lactam 1-C) | 0.21
2 | CCCCCOc1ccc(-c2cc(-c3ccc(C(=O)N[C@H]4C[C@@H](O)[C@@H](O)NC(=O)[C@@H]5[C@@H](O)[C@@H](C)CN5C(=O)[C@H]([C@H](O)CC(N)=O)NC(=O)[C@H]([C@H](O)[C@@H](O)c5ccc(O)c(OS(=O)(=O)[O-])c5)NC(=O)[C@@H]5C[C@@H](O)CN5C(=O)[C@H]([C@@H](C)O)NC4=O)cc3)no2)cc1.[Na+] [Comparative Example 9] (X1-[Orn(4R-OH,5R-OH)]T[Hyp][hTyr(3S-OH,4S-OH,3'-OSO3H)][Gln(3R-OH)][Pro(3S-OH,4S-Me)]; lactam 1-C) | 0.09
